We go through 7 compounds from patent US8450266B2 (Ipsen Pharma S.A.S., priority 2008, dated 2013).

Series [1] in a line: Human plasma half-life assay (LC-MS). Format: in vitro ADME. As to conditions: incubated at 37° C., read-out: Human Plasma T½ (converted). In short, it runs like this: (§1)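 Aliquots taken from human or rat plasma at time points up to 72 h, quenched with formic acid and acetonitrile, centrifuged. Supernatant analyzed by LC-MS (ESI, positive ion, full scan) on a C8 column with a water/acetonitrile 1% formic acid gradient.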

Series [2] is described as follows: Rat plasma half-life assay (LC-MS). Format: in vitro ADME. As to conditions: incubated at 37° C., read-out: Rat Plasma T½ (converted). In short, it runs like this:
as §1

Where a SMILES comes first, the peptide text is derived from it. [ ]: non-standard residue; d: D form. The star is where a group is joined. X2 = CCCCCCN1C(=O)CC(*)C1=O; Ac6c = NC1(C(=O)O)CCCCC1; X1 = CCCN1C(=O)CC(*)C1=O

With `CCCN1C(=O)CC(SC[C@H](NC(=O)[C@H](CCCCN)NC(=O)[C@H](Cc2c[nH]c3ccccc23)NC(=O)[C@H](CC(=O)O)NC(=O)[C@H](CC(N)=O)NC(=O)[C@H](CCCCN)NC(=O)[C@H](CCCCN)NC(=O)CNC(=O)[C@H](CCCCN)NC(=O)[C@H](CCC(N)=O)NC(=O)[C@H](C)NC(=O)[C@H](CC(C)C)NC(=O)[C@H](CC(C)C)NC(=O)[C@H](Cc2c[nH]c3ccccc23)NC(=O)[C@H](CC(N)=O)NC(=O)[C@@H](NC(=O)[C@H](Cc2ccccc2)NC(=O)[C@H](CC(=O)O)NC(=O)[C@H](CCC(N)=O)NC(=O)[C@H](CCC(N)=O)NC(=O)[C@H](Cc2c[nH]cn2)NC(=O)[C@@H](NC(=O)[C@H](CCCCN)NC(=O)[C@H](CC(=O)O)NC(=O)[C@H](CCSC)NC(=O)[C@H](C)NC(=O)[C@@H](NC(=O)[C@H](CO)NC(=O)[C@H](Cc2ccc(O)cc2)NC(=O)[C@H](CC(=O)O)NC(=O)[C@H](CO)NC(=O)C2(NC(C)=O)CCCCC2)[C@@H](C)CC)[C@@H](C)CC)C(C)C)C(=O)N[C@@H](CC(N)=O)C(=O)N[C@H](C(=O)N[C@H](C(=O)N[C@@H](CCC(N)=O)C(=O)O)[C@@H](C)O)[C@@H](C)CC)C1=O` (some centres unmarked) [Example 4, [Ac-A6c^7, Cys(Psu)^38]hGIP(7-42)-OH] (Ac-[Ac6c]SDYSIAMDKIHQQDFVNWLLAQKGKKNDWKC(X1)NITQ-OH), the values for the half-life at 0.1 mg/mL in series [1] and in series [2] were 10 h and 6 h, respectively.
On to `CCCN1C(=O)CC(SC[C@H](NC(=O)[C@H](CCCCN)NC(=O)[C@H](CCC(N)=O)NC(=O)[C@H](C)NC(=O)[C@H](CC(C)C)NC(=O)[C@H](CC(C)C)NC(=O)[C@H](Cc2c[nH]c3ccccc23)NC(=O)[C@H](CC(N)=O)NC(=O)[C@@H](NC(=O)[C@H](Cc2ccccc2)NC(=O)[C@H](CC(=O)O)NC(=O)[C@H](CCC(N)=O)NC(=O)[C@H](CCC(N)=O)NC(=O)[C@H](Cc2c[nH]cn2)NC(=O)[C@@H](NC(=O)[C@H](CCCCN)NC(=O)[C@H](CC(=O)O)NC(=O)[C@H](CCSC)NC(=O)[C@H](C)NC(=O)[C@@H](NC(=O)[C@H](CO)NC(=O)[C@H](Cc2ccc(O)cc2)NC(=O)[C@H](CC(=O)O)NC(=O)[C@H](CO)NC(=O)C2(NC(C)=O)CCCCC2)[C@@H](C)CC)[C@@H](C)CC)C(C)C)C(=O)N[C@@H](CCCCN)C(=O)N[C@@H](CCCCN)C(=O)N[C@@H](CC(N)=O)C(N)=O)C1=O` (some centres unmarked) [Example 28, (Ac-A6c^7, Cys(Psu)^31]hGIP(7-34)-NH2], for which the half-life at 0.1 mg/mL in series [1] was 8.8 h; in series [2] it was 4.1 h.
In the same order, the values of `CCCN1C(=O)CC(SC[C@H](NC(=O)[C@H](CCCCN)NC(=O)[C@H](CCC(N)=O)NC(=O)[C@H](C)NC(=O)[C@H](CC(C)C)NC(=O)[C@H](CC(C)C)NC(=O)[C@H](Cc2c[nH]c3ccccc23)NC(=O)[C@H](CC(N)=O)NC(=O)[C@@H](NC(=O)[C@H](Cc2ccccc2)NC(=O)[C@H](CC(=O)O)NC(=O)[C@H](CCC(N)=O)NC(=O)[C@H](CCC(N)=O)NC(=O)[C@H](Cc2c[nH]cn2)NC(=O)[C@@H](NC(=O)[C@H](CCCCN)NC(=O)[C@H](CC(=O)O)NC(=O)[C@H](CCSC)NC(=O)[C@H](C)NC(=O)[C@@H](NC(=O)[C@H](CO)NC(=O)[C@H](Cc2ccc(O)cc2)NC(=O)[C@H](CC(=O)O)NC(=O)[C@H](CO)NC(=O)C2(NC(=O)[C@H](Cc3ccccc3)NC(C)=O)CCCCC2)[C@@H](C)CC)[C@@H](C)CC)C(C)C)C(=O)N[C@@H](CCCCN)C(=O)N[C@@H](CCCCN)C(=O)N[C@@H](CC(N)=O)C(=O)N[C@@H](CC(=O)O)C(=O)N[C@@H](Cc2c[nH]c3ccccc23)C(=O)N[C@@H](CCCCN)C(=O)N[C@@H](Cc2c[nH]cn2)C(=O)N[C@@H](CC(N)=O)C(=O)N[C@H](C(=O)N[C@H](C(=O)N[C@@H](CCC(N)=O)C(=O)O)[C@@H](C)O)[C@@H](C)CC)C1=O` (some centres unmarked) [Example 30, [Ac-Phe^6, A6c^7, Cys(Psu)^31]hGIP(6-42)-OH] (Ac-F[Ac6c]SDYSIAMDKIHQQDFVNWLLAQKC(X1)KKNDWKHNITQ-OH) are 7.2 h and 7.6 h.
For the compound `CC[C@H](C)[C@H](NC(=O)[C@H](CO)NC(=O)[C@H](Cc1ccc(O)cc1)NC(=O)[C@H](CC(=O)O)NC(=O)[C@H](CO)NC(=O)C1(NC(C)=O)CCCCC1)C(=O)N[C@@H](C)C(=O)N[C@@H](CCSC)C(=O)N[C@@H](CC(=O)O)C(=O)N[C@@H](CCCCN)C(=O)N[C@H](C(=O)N[C@@H](Cc1c[nH]cn1)C(=O)N[C@@H](CCC(N)=O)C(=O)N[C@@H](CCC(N)=O)C(=O)N[C@@H](CC(=O)O)C(=O)N[C@@H](Cc1ccccc1)C(=O)N[C@H](C(=O)N[C@@H](CC(N)=O)C(=O)N[C@@H](Cc1c[nH]c2ccccc12)C(=O)N[C@@H](CC(C)C)C(=O)N[C@@H](CC(C)C)C(=O)N[C@@H](C)C(=O)N[C@@H](CCC(N)=O)C(=O)N[C@@H](CCCCN)C(=O)N[C@H](Cc1ccc2ccccc2c1)C(=O)N[C@@H](CCCCN)C(=O)N[C@@H](CCCCN)C(=O)N[C@@H](CC(N)=O)C(=O)N[C@@H](CC(=O)O)C(=O)N[C@@H](Cc1c[nH]c2ccccc12)C(=O)N[C@@H](CCCCN)C(=O)N[C@@H](Cc1c[nH]cn1)C(=O)N[C@@H](CC(N)=O)C(=O)N[C@H](C(=O)N[C@H](C(=O)N[C@@H](CCC(N)=O)C(=O)O)[C@@H](C)O)[C@@H](C)CC)C(C)C)[C@@H](C)CC` [Example 25, (Ac-A6c^7, D-2Nal^31)hGIP(7-42)-OH] (HELM PEPTIDE1{[ac].[O=C(C1(N[*:1])CCCCC1)[*:2]].S.D.Y.S.I.A.M.D.K.I.H.Q.Q.D.F.V.N.W.L.L.A.Q.K.[O=C([C@@H](Cc1ccc2ccccc2c1)N[*:1])[*:2]].K.K.N.D.W.K.H.N.I.T.Q}$$$$V2.0), the values for the half-life at 0.1 mg/mL in series [1] and in series [2] were more than 50 h and 13.7 h, respectively.
The matching figures for `CC[C@H](C)[C@H](NC(=O)[C@H](CCCCN)NC(=O)[C@H](CC(=O)O)NC(=O)[C@H](CCSC)NC(=O)[C@H](C)NC(=O)[C@@H](NC(=O)C1(NC(=O)[C@H](Cc2ccc(O)cc2)NC(=O)[C@H](CC(=O)O)NC(=O)[C@H](CO)NC(=O)[C@@H](NC(=O)[C@H](Cc2ccccc2)NC(=O)[C@@H](NC(=O)CNC(=O)[C@H](CCC(=O)O)NC(=O)CCc2ccc(O)cc2)[C@@H](C)O)[C@@H](C)CC)CCCCC1)[C@@H](C)CC)C(=O)N[C@@H](Cc1c[nH]cn1)C(=O)N[C@@H](CCC(N)=O)C(=O)N[C@@H](CCC(N)=O)C(=O)N[C@@H](CC(=O)O)C(=O)N[C@@H](Cc1ccccc1)C(=O)N[C@H](C(=O)N[C@@H](CC(N)=O)C(=O)N[C@@H](Cc1c[nH]c2ccccc12)C(=O)N[C@@H](CC(C)C)C(=O)N[C@@H](CC(C)C)C(=O)N[C@@H](C)C(=O)N[C@@H](CCC(N)=O)C(=O)N[C@@H](CCCCN)C(=O)NCC(=O)N[C@@H](CCCCN)C(=O)N[C@@H](CCCCN)C(=O)N[C@@H](CC(N)=O)C(=O)N[C@@H](CC(=O)O)C(=O)N[C@@H](Cc1c[nH]c2ccccc12)C(=O)N[C@@H](CCCCN)C(=O)N[C@@H](Cc1c[nH]cn1)C(=O)N[C@@H](CC(N)=O)C(=O)N[C@H](C(=O)N[C@H](C(=O)N[C@@H](CCC(N)=O)C(=O)O)[C@@H](C)O)[C@@H](C)CC)C(C)C` [Example 46, (4Hppa^2, A6c^11)hGIP(2-42)-OH]: 30.8 h and 11.9 h.
As for `CCCC[C@H](NC(=O)[C@H](C)NC(=O)[C@@H](NC(=O)[C@H](CO)NC(=O)[C@H](Cc1ccc(O)cc1)NC(=O)[C@H](CC(=O)O)NC(=O)[C@H](CO)NC(=O)[C@@H](NC(=O)[C@H](Cc1ccccc1)NC(=O)[C@@H](NC(=O)CNC(=O)[C@@H]1CCCN1C(=O)CCc1ccc(O)cc1)[C@@H](C)O)[C@@H](C)CC)[C@@H](C)CC)C(=O)N[C@@H](CC(=O)O)C(=O)N[C@@H](CCCCN)C(=O)N[C@H](C(=O)N[C@@H](Cc1c[nH]cn1)C(=O)N[C@@H](CCC(N)=O)C(=O)N[C@@H](CCC(N)=O)C(=O)N[C@@H](CC(=O)O)C(=O)N[C@@H](Cc1ccccc1)C(=O)N[C@H](C(=O)N[C@@H](CC(N)=O)C(=O)N[C@@H](Cc1c[nH]c2ccccc12)C(=O)N[C@@H](CC(C)C)C(=O)N[C@@H](CC(C)C)C(=O)N[C@@H](C)C(=O)N[C@@H](CCC(N)=O)C(=O)N[C@@H](CCCCN)C(=O)NCC(=O)N[C@@H](CCCCN)C(=O)N[C@@H](CCCCN)C(=O)N[C@@H](CC(N)=O)C(=O)N[C@@H](CC(=O)O)C(=O)N[C@@H](Cc1c[nH]c2ccccc12)C(=O)N[C@@H](CCCCN)C(=O)N[C@@H](Cc1c[nH]cn1)C(=O)N[C@@H](CC(N)=O)C(=O)N[C@H](C(=O)N[C@H](C(=O)N[C@@H](CCC(N)=O)C(=O)O)[C@@H](C)O)[C@@H](C)CC)C(C)C)[C@@H](C)CC` [Example 43, (4Hppa^2, Pro^3, Nle^14)hGIP(2-42)-OH], the half-life at 0.1 mg/mL was more than 53 h in series [1] and 2.3 h in series [2].
For the compound `CCCCCCN1C(=O)CC(SC[C@H](NC(=O)[C@H](CCCCN)NC(=O)[C@H](CCC(N)=O)NC(=O)[C@H](C)NC(=O)[C@H](CC(C)C)NC(=O)[C@H](CC(C)C)NC(=O)[C@H](Cc2c[nH]c3ccccc23)NC(=O)[C@H](CC(N)=O)NC(=O)[C@@H](NC(=O)[C@H](Cc2ccccc2)NC(=O)[C@H](CC(=O)O)NC(=O)[C@H](CCC(N)=O)NC(=O)[C@H](CCC(N)=O)NC(=O)[C@H](Cc2c[nH]cn2)NC(=O)[C@@H](NC(=O)[C@H](CCCCN)NC(=O)[C@H](CC(=O)O)NC(=O)[C@H](CCSC)NC(=O)[C@H](C)NC(=O)[C@@H](NC(=O)[C@H](CO)NC(=O)[C@H](Cc2ccc(O)cc2)NC(=O)[C@H](CC(=O)O)NC(=O)[C@H](CO)NC(=O)C2(NC(C)=O)CCCCC2)[C@@H](C)CC)[C@@H](C)CC)C(C)C)C(=O)N[C@@H](CCCCN)C(=O)N[C@@H](CCCCN)C(=O)N[C@@H](CC(N)=O)C(=O)N[C@@H](CC(=O)O)C(=O)N[C@@H](Cc2c[nH]c3ccccc23)C(=O)N[C@@H](CCCCN)C(=O)N[C@@H](Cc2c[nH]cn2)C(=O)N[C@@H](CC(N)=O)C(=O)N[C@H](C(=O)N[C@H](C(=O)N[C@@H](CCC(N)=O)C(=O)O)[C@@H](C)O)[C@@H](C)CC)C1=O` (some centres unmarked) [Example 22, [Ac-A6c^7, Cys(Hsu)^31]hGIP(7-42)-OH] (Ac-[Ac6c]SDYSIAMDKIHQQDFVNWLLAQKC(X2)KKNDWKHNITQ-OH), the values for the half-life at 0.1 mg/ml in series [1] and in series [2] were 7.7 h and 5 h, respectively.
